According to patent publication US20190133997A1, “ARTEMISININ ANALOG, AND USE, METHOD, AND COMPOSITION FOR PROMOTING LIPID CATABOLISM AND IMPROVING SUGAR METABOLISM” (FUDAN UNIVERSITY, priority 2016, published 2019):

What was measured:
high fat-fed mice [1] = experiment: Subcutaneous artemether, weight gain induced by high-fat diet; format: in vivo, Male C57BL/6J mice; settings: eight weeks
Protocol: The mice were breeded in the SPF animal laboratory of the Laboratory Animal Center of Fudan University at a room temperature of 21° C.-23° C. with a 12-hour light/dark cycle. […] When the mice were grown to 8-week old, they were randomly divided into a control group and an administration group, with 8 mice in each group. While the mice were fed with a high-fat diet, artemether was injected subcutaneously. Artemether was diluted in PBS at a concentration of […], and injected into bilateral inguinal region, with 200 μl being injected into each side. Mice in control group were injected with the same volume of PBS. Administration was continued for eight weeks and the weight of mice was recorded weekly.

high fat-fed mice [2] = experiment: Subcutaneous artemether, adipose tissue in high fat-fed mice; format: in vivo, Male C57BL/6J mice; settings: high-fat diet, subcutaneous injection, eight weeks
Protocol: The mice were breeded in the SPF animal laboratory of the Laboratory Animal Center of Fudan University at a room temperature of 21° C.-23° C. with a 12-hour light/dark cycle. […] When the mice were grown to 8-week old, they were randomly divided into a control group and an administration group, with 8 mice in each group. While the mice were fed with a high-fat diet, artemether was injected subcutaneously. Artemether was diluted in PBS at a concentration of […], and injected into bilateral inguinal region, with 200 μl being injected into each side. Mice in control group were injected with the same volume of PBS. Administration was continued for eight weeks. The mice were sacrificed by cervical dislocation and were dissected, and inguinal fat (Inguinal, subcutaneous fat), epididymal fat (Gonadal, visceral fat) and brown fat in the interscapular region (BAT, classic brown fat) were removed, weighed and fixed. The histological analysis of adipose tissue was commissioned by Shanghai Saige Biotech Co., Ltd. The histological analysis process included the steps of fixing, paraffin embedding, sectioning and HE staining.

high fat-fed mice [3] = experiment: Subcutaneous artemether, fatty liver induced by high-fat diet (HE staining); format: in vivo, Male C57BL/6J mice; settings: subcutaneous injection, eight weeks, control: obvious lipid accumulation
Protocol: The mice were breeded in the SPF animal laboratory of the Laboratory Animal Center of Fudan University at a room temperature of 21° C.-23° C. with a 12-hour light/dark cycle. […] When the mice were grown to 8-week old, they were randomly divided into a control group and an administration group, with 8 mice in each group. While the mice were fed with a high-fat diet, artemether was injected subcutaneously. Artemether was diluted in PBS at a concentration of […], and injected into bilateral inguinal region, with 200 μl being injected into each side. Mice in control group were injected with the same volume of PBS. Administration was continued for eight weeks. The mice were sacrificed by cervical dislocation, and liver tissues of mice were removed. The histological analysis including tissue fixation, paraffin embedding, sectioning and HE staining was commissioned by Shanghai Saige Biotech Co., Ltd.

ob/ob mice = experiment: Intraperitoneal artemether, weight gain in diabetic ob/ob mice; format: in vivo, Male ob/ob mice; settings: intraperitoneal 20 mg/kg twice a week, eight weeks
Protocol: The ob/ob mice were breeded in the SPF animal laboratory of the Laboratory Animal Center of Fudan University at a room temperature of 21° C.-23° C. with a 12-hour light/dark cycle. When the mice were grown to 4-week old, they were randomly divided into a control group and an administration group, with 4 mice in each group. The administration group was injected intraperitoneally with artemether. Artemether for intraperitoneal injection was stored at 4° C. in coconut oil at a storage concentration of 6 mg/ml (20 mMol/L), and protected from light. Ob/ob mice in administration group were injected with artemether at a dose of 20 mg/kg weight. Administration was twice a week for eight weeks, and the weight of the mice was recorded weekly.

[4] = Intraperitoneal artemether 20 mg/kg, liver damage in healthy mice (HE staining); format: in vivo, Male C57BL/6J mice
Protocol: The mice were breeded in the SPF animal laboratory of the Laboratory Animal Center of Fudan University at a room temperature of 21° C.-23° C. with a 12-hour light/dark cycle. When the mice were grown to 8-week old, they were randomly divided into a control group and an administration group, with 8 mice in each group. Mice in administration group were injected intraperitoneally with artemether. Artemether for intraperitoneal injection was stored at 4° C. in coconut oil at a storage concentration of 6 mg/ml (20 mMol/L), and protected from light. Mice in administration group were injected with artemether at a dose of 20 mg/kg weight. Mice in control group were injected 100 μl coconut oil. Administration was twice a week for eight weeks. The mice were sacrificed by cervical dislocation, and liver tissues of mice were removed and fixed. Liver tissue fixation, paraffin embedding, sectioning and HE staining was commissioned by Shanghai Saige Biotech Co., Ltd.

Compound: CO[C@H]1O[C@@H]2O[C@@]3(C)CC[C@H]4[C@H](C)CC[C@@H]([C@H]1C)[C@@]24OO3 [artemether]
- weight of mice (high fat-fed mice [1]; subcutaneous injection 15 Mol/L in PBS, 200 μl each inguinal side, statistically different after six weeks): significantly lower than that of mice in control group
- weight gain of mice (high fat-fed mice [1]; subcutaneous injection): significantly slower than that of mice in control group
- adipocyte size (sectioning and HE staining) (high fat-fed mice [2]): significantly smaller than that of mice in control group
- volume of adipose tissue (inguinal fat, epididymal fat and brown fat) (high fat-fed mice [2]): significantly smaller than that of mice in control group
- weight of adipose tissue (inguinal fat, epididymal fat and brown fat) (high fat-fed mice [2]): significantly smaller than that of mice in control group
- lipid in the liver (fatty liver) (high fat-fed mice [3]): only a small amount of lipid
- weight gain of ob/ob mice (ob/ob mice): significantly slower than that of mice in control group
- weight of ob/ob mice (ob/ob mice): tended to be lower than that of mice in control group, but was not statistically different
- morphology of liver cells ([4]; healthy lean mice, intraperitoneal 20 mg/kg twice a week, eight weeks): normal, and had no difference from that of mice in control group
- hepatotoxicity ([4]; intraperitoneal 20 mg/kg weight twice a week for eight weeks): no hepatotoxicity
